The record followed here is ChEMBL document CHEMBL4177673, “Imidazo[1,2-a]pyridin-6-yl-benzamide analogs as potent RAF inhibitors” (Bioorg Med Chem Lett, 2017).

The EC50 is the concentration needed to bring the measured effect to its halfway point. As a reminder, the IC50 is the concentration that gives 50% inhibition. In general, solubility refers to the dissolved amount per volume that the medium holds. The bioavailability is the share of a dose that reaches the circulation, judged against a reference dose that is usually intravenous. A high value points to much systemic uptake. As usually defined, the CL/F is clearance divided by bioavailability, as obtained after extravascular dosing. In general, half-life refers to how long it takes for the measured level to halve. A higher half-life goes with slow loss.

Structures are written as SMILES. Converted amounts (≈) assume the structure as drawn. Where only a bound is given, the exact number is not on record here.

In one series the test system is A-375. Description: Antiproliferative activity against human A375 cells. The series is classed as functional, cell-based.
The target of another series is MAP kinase p38 (Homo sapiens, UniProt O15264+Q15759+Q16539+P53778). Put plainly: Inhibition of P38 (unknown origin). The series is classed as protein assay.
The target in series [1] is Vascular endothelial growth factor receptor 2 (Homo sapiens, UniProt P35968). Description: Inhibition of VEGFR2 (unknown origin).
For series [2], the species on record is Homo sapiens. Put plainly: Selectivity ratio of IC50 for P38 (unknown origin) to IC50 for recombinant C-terminal his6-tagged B-Raf (437 to 765 residues) V600E mutant (unknown origin) expressed in baculovirus infected Sf21 insect cells.
Series [3] deals with T1, Serine/threonine-protein kinase B-raf (Homo sapiens, UniProt P15056, V600E). Put plainly: Inhibition of recombinant C-terminal his6-tagged B-Raf (437 to 765 residues) V600E mutant (unknown origin) catalytic domain expressed in baculovirus infected Sf21 insect cells using biotinylated Mek substrate preincubated for 60 mins measured after 3 hrs by amplified luminescence proximity homogeneous assay.

For series [4], the target named is T1, Serine/threonine-protein kinase B-raf. Description: Inhibition of B-Raf V600E mutant in human A375 cells assessed as reduction in ERK phosphorylation. The class given is cell-based.
For series [5], the species on record is Homo sapiens. Put plainly: Selectivity ratio of IC50 for VEGFR2 (unknown origin) to IC50 for recombinant C-terminal his6-tagged B-Raf (437 to 765 residues) V600E mutant (unknown origin) expressed in baculovirus infected Sf21 insect cells.
Series [6] can be described thus: Solubility of the compound in PBS at pH 7. The series is classed as physicochemical.
The nature of series [7]: Oral bioavailability in mouse at 20 mg/kg administered as single dose. The class given is ADME, organism-based. The settings on record: in vivo.
Series [8] can be described thus: Clearance in mouse at 20 mg/kg, po administered as single dose. As to conditions: in vivo. The class given is ADME, organism-based.
The nature of series [9]: Half life in mouse at 20 mg/kg, po administered as single dose. The series is classed as ADME, organism-based. The settings on record: in vivo.
For the next series, the system named is Mus musculus. Description: Volume of distribution in mouse at 20 mg/kg, po administered as single dose. The class given is ADME, organism-based. The settings on record: in vivo.
The target in the next series is Ephrin type-A receptor 4 (Homo sapiens, UniProt P54764). Description: Inhibition of EphA4 (unknown origin).
In series [10] the target is Tyrosine-protein kinase Lyn (Homo sapiens, UniProt P07948). Description: Inhibition of Lyn (unknown origin).
For a further series, the target named is T2, Ephrin type-B receptor 4 (Homo sapiens, UniProt P54760).
T2 sequence (P54760 whole entry): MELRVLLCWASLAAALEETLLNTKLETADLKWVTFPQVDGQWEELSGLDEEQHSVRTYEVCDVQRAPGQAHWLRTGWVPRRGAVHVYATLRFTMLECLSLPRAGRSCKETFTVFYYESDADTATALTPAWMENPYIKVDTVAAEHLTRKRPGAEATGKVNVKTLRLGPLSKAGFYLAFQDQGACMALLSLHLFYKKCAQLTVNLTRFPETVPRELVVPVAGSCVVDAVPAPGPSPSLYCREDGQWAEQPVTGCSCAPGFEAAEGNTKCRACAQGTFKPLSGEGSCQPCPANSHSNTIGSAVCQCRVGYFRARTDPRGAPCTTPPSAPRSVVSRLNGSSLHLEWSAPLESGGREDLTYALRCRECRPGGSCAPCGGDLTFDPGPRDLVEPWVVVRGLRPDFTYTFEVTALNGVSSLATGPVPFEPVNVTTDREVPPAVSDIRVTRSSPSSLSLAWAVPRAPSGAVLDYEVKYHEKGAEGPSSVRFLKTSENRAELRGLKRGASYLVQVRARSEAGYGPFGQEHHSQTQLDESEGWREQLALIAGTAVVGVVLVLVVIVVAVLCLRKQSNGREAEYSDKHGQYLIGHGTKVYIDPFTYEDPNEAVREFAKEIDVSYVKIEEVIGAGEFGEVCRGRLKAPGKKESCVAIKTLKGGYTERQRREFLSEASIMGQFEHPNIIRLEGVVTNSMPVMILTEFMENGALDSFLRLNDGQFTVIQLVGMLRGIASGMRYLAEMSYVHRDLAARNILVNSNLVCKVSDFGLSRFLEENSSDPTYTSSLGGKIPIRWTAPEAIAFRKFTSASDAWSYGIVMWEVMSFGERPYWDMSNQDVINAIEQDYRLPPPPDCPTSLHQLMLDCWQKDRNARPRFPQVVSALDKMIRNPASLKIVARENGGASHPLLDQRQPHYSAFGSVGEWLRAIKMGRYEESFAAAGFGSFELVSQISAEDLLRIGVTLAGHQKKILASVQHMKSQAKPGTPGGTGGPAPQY
Put plainly: Inhibition of EphB4 (unknown origin).

The target in series [11] is Platelet-derived growth factor receptor alpha (Homo sapiens, UniProt P16234). Put plainly: Inhibition of PDGFRalpha (unknown origin).
Series [12] has as its target Mast/stem cell growth factor receptor Kit (Homo sapiens, UniProt P10721). Put plainly: Inhibition of Kit (unknown origin).

Vascular endothelial growth factor receptor 2, sequence (P35968 whole entry, the tested form may be a part): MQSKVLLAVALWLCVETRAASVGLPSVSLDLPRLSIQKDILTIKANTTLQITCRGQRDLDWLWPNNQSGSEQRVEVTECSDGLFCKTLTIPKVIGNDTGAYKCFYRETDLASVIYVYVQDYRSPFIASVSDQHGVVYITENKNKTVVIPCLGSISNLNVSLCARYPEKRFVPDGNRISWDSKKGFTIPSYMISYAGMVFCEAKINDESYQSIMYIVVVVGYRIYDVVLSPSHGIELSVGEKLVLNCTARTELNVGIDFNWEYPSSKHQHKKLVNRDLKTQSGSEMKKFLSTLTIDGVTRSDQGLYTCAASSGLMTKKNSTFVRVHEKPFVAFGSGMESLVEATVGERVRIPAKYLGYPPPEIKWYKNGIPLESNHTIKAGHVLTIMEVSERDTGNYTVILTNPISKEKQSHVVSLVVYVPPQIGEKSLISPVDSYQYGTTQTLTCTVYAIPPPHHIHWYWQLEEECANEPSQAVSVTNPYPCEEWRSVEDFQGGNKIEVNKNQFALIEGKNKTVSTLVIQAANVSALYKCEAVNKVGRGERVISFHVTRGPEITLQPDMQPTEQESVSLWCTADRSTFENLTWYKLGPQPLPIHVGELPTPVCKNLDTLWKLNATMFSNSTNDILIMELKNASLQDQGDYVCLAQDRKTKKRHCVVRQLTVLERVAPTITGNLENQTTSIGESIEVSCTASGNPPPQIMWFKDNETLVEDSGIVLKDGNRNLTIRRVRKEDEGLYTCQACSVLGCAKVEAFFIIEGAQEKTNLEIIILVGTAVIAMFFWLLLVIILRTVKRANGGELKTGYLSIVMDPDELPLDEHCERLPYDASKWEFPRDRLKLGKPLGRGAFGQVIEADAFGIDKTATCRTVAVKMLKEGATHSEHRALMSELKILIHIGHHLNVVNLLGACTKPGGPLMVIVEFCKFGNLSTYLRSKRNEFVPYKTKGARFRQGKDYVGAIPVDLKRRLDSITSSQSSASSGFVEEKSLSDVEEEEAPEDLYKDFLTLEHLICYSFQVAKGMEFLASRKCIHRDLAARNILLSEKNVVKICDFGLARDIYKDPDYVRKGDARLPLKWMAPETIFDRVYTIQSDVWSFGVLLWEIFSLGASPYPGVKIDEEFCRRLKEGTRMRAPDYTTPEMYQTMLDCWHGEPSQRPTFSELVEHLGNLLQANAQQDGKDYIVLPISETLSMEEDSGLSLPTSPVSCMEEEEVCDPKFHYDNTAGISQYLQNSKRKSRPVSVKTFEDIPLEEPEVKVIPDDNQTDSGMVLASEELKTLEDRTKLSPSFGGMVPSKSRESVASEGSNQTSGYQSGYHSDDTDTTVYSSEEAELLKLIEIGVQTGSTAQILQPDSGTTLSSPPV
T1 sequence (P15056 2-766 V600E limits assumed): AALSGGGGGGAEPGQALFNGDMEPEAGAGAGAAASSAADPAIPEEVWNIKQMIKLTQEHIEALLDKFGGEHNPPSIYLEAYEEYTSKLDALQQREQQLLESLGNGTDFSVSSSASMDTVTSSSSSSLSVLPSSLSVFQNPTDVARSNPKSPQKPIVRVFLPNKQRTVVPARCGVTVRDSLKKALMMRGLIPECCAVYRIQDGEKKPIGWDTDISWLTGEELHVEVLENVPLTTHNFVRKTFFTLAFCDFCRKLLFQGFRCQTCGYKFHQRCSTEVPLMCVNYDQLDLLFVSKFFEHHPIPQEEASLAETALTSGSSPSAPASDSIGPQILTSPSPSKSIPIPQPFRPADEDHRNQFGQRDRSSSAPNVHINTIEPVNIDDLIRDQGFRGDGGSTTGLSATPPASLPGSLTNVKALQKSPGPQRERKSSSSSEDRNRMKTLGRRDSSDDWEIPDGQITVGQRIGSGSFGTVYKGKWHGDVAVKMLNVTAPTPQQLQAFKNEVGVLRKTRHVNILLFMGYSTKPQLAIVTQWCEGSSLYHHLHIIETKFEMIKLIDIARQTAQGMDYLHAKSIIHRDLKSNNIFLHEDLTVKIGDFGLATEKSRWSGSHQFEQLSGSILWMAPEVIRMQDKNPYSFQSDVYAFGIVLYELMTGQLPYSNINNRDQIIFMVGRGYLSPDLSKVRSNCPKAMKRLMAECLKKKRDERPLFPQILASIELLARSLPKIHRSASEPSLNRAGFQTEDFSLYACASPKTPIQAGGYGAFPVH
Tyrosine-protein kinase Lyn, sequence (P07948 whole entry): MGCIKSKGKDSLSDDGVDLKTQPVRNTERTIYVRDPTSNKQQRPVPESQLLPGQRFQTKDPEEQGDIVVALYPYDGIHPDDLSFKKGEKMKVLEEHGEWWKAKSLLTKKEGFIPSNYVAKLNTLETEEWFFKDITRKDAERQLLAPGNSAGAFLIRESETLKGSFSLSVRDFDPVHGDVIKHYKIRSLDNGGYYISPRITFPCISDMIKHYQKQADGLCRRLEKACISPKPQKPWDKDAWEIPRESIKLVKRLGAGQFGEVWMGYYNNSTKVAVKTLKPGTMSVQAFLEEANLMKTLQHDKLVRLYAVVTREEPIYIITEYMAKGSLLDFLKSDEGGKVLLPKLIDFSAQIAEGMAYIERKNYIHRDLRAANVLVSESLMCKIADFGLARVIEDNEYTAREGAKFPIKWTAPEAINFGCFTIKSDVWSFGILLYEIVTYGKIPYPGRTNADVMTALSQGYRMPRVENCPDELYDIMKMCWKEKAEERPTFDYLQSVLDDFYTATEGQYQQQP
Mast/stem cell growth factor receptor Kit, sequence (P10721 whole entry): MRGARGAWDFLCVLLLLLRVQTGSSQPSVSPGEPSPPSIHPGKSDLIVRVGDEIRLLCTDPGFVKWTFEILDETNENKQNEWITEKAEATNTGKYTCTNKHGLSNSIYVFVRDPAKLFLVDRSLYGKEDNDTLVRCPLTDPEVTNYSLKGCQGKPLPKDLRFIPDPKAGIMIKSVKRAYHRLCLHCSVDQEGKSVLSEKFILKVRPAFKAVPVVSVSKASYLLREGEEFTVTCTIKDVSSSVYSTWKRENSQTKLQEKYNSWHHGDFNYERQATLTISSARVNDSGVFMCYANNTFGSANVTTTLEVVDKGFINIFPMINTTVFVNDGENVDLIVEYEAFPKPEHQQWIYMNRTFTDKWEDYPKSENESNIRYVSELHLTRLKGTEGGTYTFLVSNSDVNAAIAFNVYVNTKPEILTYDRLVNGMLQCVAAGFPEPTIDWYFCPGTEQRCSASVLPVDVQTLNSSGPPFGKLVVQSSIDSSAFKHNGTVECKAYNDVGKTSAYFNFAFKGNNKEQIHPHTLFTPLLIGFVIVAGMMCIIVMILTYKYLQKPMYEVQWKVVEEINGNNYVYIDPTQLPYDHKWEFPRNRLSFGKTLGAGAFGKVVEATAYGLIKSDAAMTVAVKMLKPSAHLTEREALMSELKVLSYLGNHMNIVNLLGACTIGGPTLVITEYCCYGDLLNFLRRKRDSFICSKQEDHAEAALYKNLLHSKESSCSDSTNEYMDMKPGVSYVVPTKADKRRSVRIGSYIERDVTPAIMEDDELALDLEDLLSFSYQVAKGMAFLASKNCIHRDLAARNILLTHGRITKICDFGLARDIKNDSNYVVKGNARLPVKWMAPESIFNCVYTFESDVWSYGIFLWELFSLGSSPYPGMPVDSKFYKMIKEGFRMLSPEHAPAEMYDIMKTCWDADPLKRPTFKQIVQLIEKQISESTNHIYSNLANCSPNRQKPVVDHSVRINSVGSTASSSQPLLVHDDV
Ephrin type-A receptor 4, sequence (P54764 whole entry): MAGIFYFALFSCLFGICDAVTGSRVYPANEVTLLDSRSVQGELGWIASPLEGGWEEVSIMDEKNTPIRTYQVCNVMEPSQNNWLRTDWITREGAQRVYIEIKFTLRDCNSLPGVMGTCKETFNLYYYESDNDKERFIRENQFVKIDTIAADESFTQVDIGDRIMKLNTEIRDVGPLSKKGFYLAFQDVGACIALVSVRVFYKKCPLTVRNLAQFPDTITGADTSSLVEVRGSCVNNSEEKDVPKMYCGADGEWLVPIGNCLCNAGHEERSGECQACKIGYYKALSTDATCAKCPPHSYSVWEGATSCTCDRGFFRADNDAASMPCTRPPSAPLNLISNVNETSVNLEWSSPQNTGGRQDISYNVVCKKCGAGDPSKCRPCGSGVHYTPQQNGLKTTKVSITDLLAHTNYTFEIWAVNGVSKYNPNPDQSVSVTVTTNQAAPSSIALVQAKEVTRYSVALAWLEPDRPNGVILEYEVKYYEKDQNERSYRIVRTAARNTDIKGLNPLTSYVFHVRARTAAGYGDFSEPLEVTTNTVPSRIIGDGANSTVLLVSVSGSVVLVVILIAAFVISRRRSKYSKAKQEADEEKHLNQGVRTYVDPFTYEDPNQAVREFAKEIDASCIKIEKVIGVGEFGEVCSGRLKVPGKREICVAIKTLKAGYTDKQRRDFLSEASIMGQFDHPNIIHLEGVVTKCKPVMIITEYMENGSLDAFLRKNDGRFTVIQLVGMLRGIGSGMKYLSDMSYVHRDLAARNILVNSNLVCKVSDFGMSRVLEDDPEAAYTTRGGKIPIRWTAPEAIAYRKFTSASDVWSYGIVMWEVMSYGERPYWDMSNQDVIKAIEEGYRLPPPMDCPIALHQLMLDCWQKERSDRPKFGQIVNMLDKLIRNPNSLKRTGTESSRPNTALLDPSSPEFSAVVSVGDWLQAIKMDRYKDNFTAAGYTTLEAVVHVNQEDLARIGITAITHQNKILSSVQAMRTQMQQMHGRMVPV

With `CC(=O)Nc1cn2cc(-c3cc(NC(=O)c4cc(C(F)(F)F)ccn4)ccc3C)ccc2n1`, the EC50 in the series on A-375 stood at 280 nM; in series [4] it was 770 nM. The IC50 was determined as 660 nM against MAP kinase p38, 2000 nM in [1] and 0.9 nM in series [3]. Besides, the Ratio IC50 was 700 in the series listed under Homo sapiens [2] and 2000 in the series filed under Homo sapiens [5].
On to `CC(=O)Nc1cn2cc(-c3cc(NC(=O)c4ccc(CN5CCN(C)CC5)c(C(F)(F)F)c4)ccc3C)ccc2n1`, for which the results for the EC50 (in the series on A-375; in series [4]) were 430 nM and 130 nM, respectively. For the same compound, the IC50 on MAP kinase p38 was less than 11 nM; in series [1] it was 110 nM; in [3] it was 5 nM. The solubility in [6] came to 4.6 µM (≈ 2.6 µg/mL). Further, the Ratio IC50 was less than 2 in the series listed under Homo sapiens [2] and 20 in the series filed under Homo sapiens [5].
In the case of `CC(=O)Nc1cn2cc(-c3cc(NC(=O)c4cccc(C(F)(F)F)c4)ccc3C)ccc2n1`, the bioavailability in series [7] worked out at 73%. In series [8], the apparent clearance (CL/F) was 18 mL/min/kg. The EC50 stood at 86 nM with A-375 and 230 nM in [4]. The compound further came in with a half-life in series [9] of 2.45 h. In addition, the Vd in the series with Mus musculus came out at 2.15 L/kg. The IC50 at Ephrin type-A receptor 4 was 74 nM; in series [10], 170 nM; against MAP kinase p38, 220 nM; against Ephrin type-B receptor 4, 150 nM; in series [11], 8 nM; in series [1], 320 to 670 nM. The IC50 came to 0.2 nM in [3] and 52 nM in series [12]. For the same compound, in series [6], the solubility was less than 0.4 µM. Also, the Ratio IC50 came out at 1100 in the series filed under Homo sapiens [2] and 1600 in the series filed under Homo sapiens [5].
Take `CC(=O)Nc1cn2cc(-c3cc(NC(=O)c4cc(N5CCN(C)C[C@@H]5C)cc(C(F)(F)F)c4)ccc3C)ccc2n1`: the half-maximal effective concentration (EC50) in the series with A-375 was found to be 340 nM; in series [4] it was 240 nM. Also, the figures for the IC50 (against MAP kinase p38; in [3]) were 2 nM and 3 nM, respectively. The compound also yielded a solubility in series [6] of 122 µM (≈ 68.9 µg/mL). In addition, the Ratio IC50 in the series listed under Homo sapiens [2] came to 0.7.
With `CC(=O)Nc1cn2cc(-c3cc(NC(=O)c4cccc(C(C)(C)C)c4)ccc3C)ccc2n1`, the 50% effective concentration (EC50) with A-375 amounted to 57 nM; in series [4], 25 nM. For the same compound, the IC50 against MAP kinase p38 came to 2 nM; in series [1], 44 nM; in series [3], 0.3 nM. In addition, the Ratio IC50 in the series listed under Homo sapiens [2] came to 7; in the series filed under Homo sapiens [5] it was 146.
Take `CC(=O)Nc1cn2cc(-c3cc(NC(=O)c4cccc(Cl)c4)ccc3C)ccc2n1`: the EC50 with A-375 was 70 nM; in series [4] it was 480 nM. Further, the IC50 against MAP kinase p38 was 3100 nM; in [1], 2700 nM; in [3] it was 0.3 nM. Further, the Ratio IC50 was 10000 in the series listed under Homo sapiens [2] and 9000 in the series listed under Homo sapiens [5].
`CC(=O)Nc1cn2cc(-c3cc(NC(=O)c4cccc(C(F)(F)F)n4)ccc3C)ccc2n1`: the EC50 with A-375 was 130 nM; in [4], greater than 10000 nM. Moreover, the IC50 on MAP kinase p38 is greater than 25000 nM; in series [3] it was 6 nM. For the same compound, the Ratio IC50 in the series filed under Homo sapiens [2] is greater than 4000.
Consider `CC(=O)Nc1cn2cc(-c3cc(NC(=O)c4ccccc4)ccc3C)ccc2n1`, for which the EC50 with A-375 came out at 100 nM; in series [4], 540 nM. In addition, the results for the IC50 (against MAP kinase p38; in [1]; in [3]) were 1600 nM, 11000 nM and 61 nM, respectively. Moreover, the Ratio IC50 in the series listed under Homo sapiens [2] was 3 to 20; in the series listed under Homo sapiens [5] it was 18.
